# Measured values as given in ChEMBL document CHEMBL1153748 (J Med Chem, 2010).
# pEC50: −log10 of the molar value.
# Tests used:
# [1] = AUC ((0 to 24 hrs)) in Balb/c mouse at 10 mg/kg, po qd; conditions: plasma
# [2] = biological target: Peroxisome proliferator-activated receptor delta (Homo sapiens) (UniProt Q03181); assay: Agonist activity at human PPARdelta by FRET assay
# [3] = Oral bioavailability in Balb/c mouse at 10 mg/kg daily; conditions: in vivo
# [4] = biological target: T1, Peroxisome proliferator-activated receptor delta (Homo sapiens, UniProt Q03181)
# T1 sequence (Q03181 whole entry): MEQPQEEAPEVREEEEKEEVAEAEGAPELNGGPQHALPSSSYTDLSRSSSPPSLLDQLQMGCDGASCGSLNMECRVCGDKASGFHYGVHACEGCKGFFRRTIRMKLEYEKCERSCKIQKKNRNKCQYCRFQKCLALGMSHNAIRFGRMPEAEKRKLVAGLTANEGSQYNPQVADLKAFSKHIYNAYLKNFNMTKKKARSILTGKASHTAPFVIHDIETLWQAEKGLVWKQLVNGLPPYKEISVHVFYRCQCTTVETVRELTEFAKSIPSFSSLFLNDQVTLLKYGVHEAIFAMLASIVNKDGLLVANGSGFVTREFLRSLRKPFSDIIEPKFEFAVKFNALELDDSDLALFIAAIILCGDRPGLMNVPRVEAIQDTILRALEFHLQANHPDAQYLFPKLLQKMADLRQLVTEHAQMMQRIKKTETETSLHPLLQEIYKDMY
# [5] = biological target: T2, Peroxisome proliferator-activated receptor alpha (Homo sapiens, UniProt Q07869); assay: Agonist activity at human PPARalpha ligand binding domain expressed in human 293T cells co-transfected with Gal4-DBD by luciferase transactivation assay; format: cell-based; conditions: read-out: EC50
# T2 sequence (Q07869 whole entry): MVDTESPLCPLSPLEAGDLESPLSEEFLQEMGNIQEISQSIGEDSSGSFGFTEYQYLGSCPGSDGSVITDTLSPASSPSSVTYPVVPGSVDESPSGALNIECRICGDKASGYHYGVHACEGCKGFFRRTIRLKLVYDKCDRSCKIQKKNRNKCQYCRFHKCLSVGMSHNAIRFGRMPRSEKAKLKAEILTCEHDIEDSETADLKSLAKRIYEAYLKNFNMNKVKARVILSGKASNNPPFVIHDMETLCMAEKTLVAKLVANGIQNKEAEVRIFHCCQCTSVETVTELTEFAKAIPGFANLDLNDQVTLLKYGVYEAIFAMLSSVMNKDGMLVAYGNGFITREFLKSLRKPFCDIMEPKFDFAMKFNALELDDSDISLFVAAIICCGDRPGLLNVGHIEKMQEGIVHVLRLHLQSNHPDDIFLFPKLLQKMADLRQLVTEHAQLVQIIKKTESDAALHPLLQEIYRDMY
# [6] = biological target: T1, Peroxisome proliferator-activated receptor delta; remark: listed apart in the source
# [7] = biological target: T3, Peroxisome proliferator-activated receptor gamma (Homo sapiens, UniProt P37231); format: cell-based, 293T; conditions: read-out: EC50
# T3 sequence (P37231 whole entry): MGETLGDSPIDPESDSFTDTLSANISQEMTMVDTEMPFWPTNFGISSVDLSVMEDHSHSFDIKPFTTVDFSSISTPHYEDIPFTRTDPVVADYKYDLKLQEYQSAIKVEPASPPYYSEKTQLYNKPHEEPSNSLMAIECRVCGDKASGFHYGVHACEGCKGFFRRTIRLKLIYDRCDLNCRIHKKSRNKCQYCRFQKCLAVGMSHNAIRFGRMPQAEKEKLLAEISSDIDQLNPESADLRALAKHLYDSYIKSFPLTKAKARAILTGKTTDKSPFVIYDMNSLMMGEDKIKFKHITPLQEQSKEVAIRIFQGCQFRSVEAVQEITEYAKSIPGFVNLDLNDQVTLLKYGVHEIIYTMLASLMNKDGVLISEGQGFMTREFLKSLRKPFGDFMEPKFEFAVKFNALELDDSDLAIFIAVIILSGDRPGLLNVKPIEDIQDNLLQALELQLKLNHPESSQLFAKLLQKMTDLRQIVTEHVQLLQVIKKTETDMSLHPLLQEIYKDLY
# Mus musculus [8] = assay: Upregulation of PDK4 expression in C57BL/6 mouse at 10 mg/kg, po qd relative to control; format: functional
# [9] = Cmax in Balb/c mouse at 10 mg/kg, po qd; conditions: in vivo
# Mus musculus [10] = assay: Upregulation of UCP3 expression in C57BL/6 mouse at 10 mg/kg, po qd relative to control; format: functional
# [11] = Half life in Balb/c mouse at 10 mg/kg, po qd; conditions: in vivo
# [12] = biological target: T4, Peroxisome proliferator-activated receptor alpha (Homo sapiens) (UniProt Q07869); assay: Agonist activity at human PPARalpha ligand binding domain expressed in human 293T cells co-transfected with Gal4-DBD by luciferase transactivation assay relative to KRP297; format: cell-based
# T4 sequence (whole entry): T2 sequence (Q07869 whole entry)
Structure (SMILES),AUC at 24 h [1],pEC50 [2],bioavailability [3],pEC50 [4],pEC50 [5],pEC50 [6],pEC50 [7],fold change (FC) (Mus musculus [8]),Cmax [9],fold change (FC) (Mus musculus [10]),half-life [11],Efficacy [12]
Cc1cc(OCc2nc(-c3ccc(OC4CCCC4)cc3)c(-c3ccc(OC(F)(F)F)cc3)o2)ccc1OCC(=O)O,23.3 µM·h,8.05,35%,7.92,6.04,8.40,< 5.00,2.1,2.4 µM,2.5,3.1 h,56%
Cc1cc(OCc2nc(-c3ccc(OC(C)C)nc3)c(-c3ccc(OC(F)(F)F)cc3)s2)ccc1OCC(=O)O,62.9 µM·h,7.89,72%,7.92,< 5.00,8.10,< 5.00,1.9,4.7 µM,2.9,10.8 h,–
Cc1cc(OCc2nc(-c3ccc(OC(C)C)cc3)c(-c3ccc(OC(F)(F)F)cc3)s2)ccc1OCC(=O)O,54.1 µM·h,7.59,88%,8.00,< 5.00,8.15,< 5.00,1.9,3.7 µM,2.4,9 h,–
Cc1cc(OCc2nc(-c3ccc(OC(C)C)cc3)c(-c3ccc(OC(F)(F)F)cc3)o2)ccc1OCC(=O)O,104 µM·h,8.05,129%,7.89,5.59,8.52,< 5.00,2.3,7.8 µM,2.2,5.1 h,43%
Cc1cc(OCc2nc(-c3cnc(OC(C)C)nc3)c(-c3ccc(OC(F)(F)F)cc3)s2)ccc1OCC(=O)O,20.1 µM·h,8.00,88%,7.85,< 5.00,8.22,< 5.00,1.6,3.5 µM,1.5,2.3 h,–
Cc1cc(OCc2nc(-c3ccc(OC(C)C)nc3)c(-c3ccc(OC(F)(F)F)cc3)o2)ccc1OCC(=O)O,95.8 µM·h,8.15,144%,7.85,6.10,5.60,4.15,1.5,9.1 µM,2.5,5.3 h,20%
COc1ccc(-c2nc(COc3ccc(OCC(=O)O)c(C)c3)sc2-c2ccc(OC(F)(F)F)cc2)cn1,196 µM·h,7.05,140%,7.92,< 5.00,7.77,< 5.00,1.9,17.3 µM,2.5,4.6 h,–
